Where two headings read alike, the source gives them in different places.
Experiments:
[1] = Pharmacokinetic study in rat plasma after oral administration of QJYQ (UHPLC-sMRM); format: in vivo, Sprague-Dawley rats; details: rat plasma, oral QJYQ 3.15 g/kg, n = 8, mean ± SD; for AUC(0-inf): read-out: AUC(0-∞); for MRT inf: read-out: MRT (0-∞); for MRT last: read-out: MRT(0-t)
Method: Exion LC AD tandem Blueline 3500 triple quadrupole mass spectrometer (AB SCIEX, Framingham, MA, United States) was used to thirty-three compounds in rat plasma. […] The whole detailed parameters of sMRM were obtained in Supplementary Table S1.
Rat plasma (100 μL) was mixed with 10% formic acid (10 μL) and vortexed for 1 min at room temperature. ISs (10 μL) and methanol/acetonitrile (1/1, v/v) (400 μL) were added and vortexed for 5 min, then centrifuged for 10 min at 14,000 rpm and 4°C. The transported supernatant was condensed to dryness under the flow of nitrogen gas. The dried residue was reconstituted with 70% methanol (100 μL) by vortex-mixing for 5 min and centrifuging at 14,000 rpm for 10 min. Last, 2 μL of the solution were injected into the UHPLC-sMRM system.
The pharmacokinetic study was approved by the Animal Ethics Committee of Tianjin University of Traditional Chinese Medicine (TCM-LAEC2021228). Ten male Sprague-Dawley rats (weight 220–240 g) was kept at the animal center of Tianjin University of Traditional Chinese Medicine (Tianjin, China). […] The sample was transferred right away following a 10 min period of centrifugation at 7000 rpm and 4°C. All plasma samples were frozen and stored at −80°C.
All the pharmacokinetic parameters were calculated using the DAS 1.0 software (Drug and Statistics 1.0, Medical College of Wannan, China). Pharmacokinetic parameters include the maximum drug concentration in plasma (Cmax), the time to achieve maximum drug concentration (Tmax), the area under the plasma concentration-time curve (AUC), elimination half-life (T1/2), and mean residence time (MRT). The pharmacokinetic parameters were computed using the non-compartmental model. All data are expressed as mean ± standard deviation (SD). GraphPad Prism 8.0 (GraphPad Software Inc., La Jolla, CA, United States) software was used to draw the drug-time curve.

[2] = Stability of analytes in rat plasma (auto-sampler, freeze-thaw, room temperature, long-term); details: for Autosampler for 24 h Accuracy (%): autosampler 24 h; for Room temperature for 24 h Accuracy (%): room temperature 24 h; for Freeze thaw cycles Accuracy (%): three freeze-thaw cycles
Method: (§1) The stability of analytes in plasma was evaluated by analyzing 4 QC samples (n = 6). The stability was included auto-sampler stability (keeping the sample in auto-sampler for 24 h), three times of freeze-thaw cycles stability (freezing cycle at −80°C, thawing cycle at room temperature), room temperature stability (storing samples at room temperature for 24 h), long-term stability (storing samples at −80°C for 1 month). […] Accompanying curve was established when testing the sample, calculate and compare the ratio of the actual measured concentration to the theoretical concentration, expressed in accuracy and RSD.

[3] = Stability of the working solution (4°C for 1 month); format: physicochemical
Method: as §1

[4] = male, Sprague-Dawley, read-out: AUC(0-t)
[5] = male, Sprague-Dawley, read-out: Cmax

half-life ([1]; male, Sprague-Dawley) [h]	AUC(0-t) [1, 4] [ng·h/mL]	AUC(0-inf) ([1]; male, Sprague-Dawley) [ng·h/mL]	Cmax [1, 5] [ng/mL]	MRT inf ([1]; male, Sprague-Dawley) [h]	MRT last ([1]; male, Sprague-Dawley) [h]	SMILES	Room temperature for 24 h Accuracy (%) ([2]; 50 ng/mL)	Freeze thaw cycles Accuracy (%) ([2]; 50 ng/mL)	−80°C for 1month Accuracy (%) ([2]; 50 ng/mL, −80°C 1 month)	Autosampler for 24 h Accuracy (%) ([2]; 100 ng/mL)	Room temperature for 24 h Accuracy (%) ([2]; 100 ng/mL)	Freeze thaw cycles Accuracy (%) ([2]; 100 ng/mL)	−80°C for 1month Accuracy (%) ([2]; 100 ng/mL, −80°C 1 month)	Autosampler for 24 h Accuracy (%) ([2]; 500 ng/mL)	Freeze thaw cycles Accuracy (%) ([2]; 500 ng/mL)	−80°C for 1month Accuracy (%) ([2]; 500 ng/mL, −80°C 1 month)	Working solution Accuracy (%) ([3]; 50 ng/mL)	Working solution Accuracy (%) ([3]; 100 ng/mL)	further results
						COc1ccc([C@@H]2CC(=O)c3c(O)cc(O[C@@H]4O[C@H](CO[C@@H]5O[C@@H](C)[C@H](O)[C@@H](O)[C@H]5O)[C@@H](O)[C@H](O)[C@H]4O)cc3O2)cc1O [hesperidin]	93.7	85.4	85.8	96.0	92.3	95.7	93.1	87.8	89.1	93.6	109.0	102.0	AUC(0-t) [1]: 1058.05 ± 267.32 ng·h/mL; AUC(0-∞) [1]: 1058.06 ± 267.32 ng·h/mL; Cmax [1]: 604.36 ± 145.25 ng/mL; MRT (0-∞) [1]: 4.52 ± 0.54 h; MRT(0-t) [1]: 4.52 ± 0.54 h; T1/2 [1]: 1.94 ± 0.03 h; Autosampler for 24 h Accuracy (%) ([2]; 12.5 ng/mL): 82.1%; Room temperature for 24 h Accuracy (%) ([2]; 12.5 ng/mL): 84.1%; Freeze thaw cycles Accuracy (%) ([2]; 12.5 ng/mL): 94.3%; −80°C for 1month Accuracy (%) ([2]; 12.5 ng/mL, −80°C 1 month): 81.8%; Autosampler for 24 h Accuracy (%) ([2]; 50 ng/mL): 100.0%; Room temperature for 24 h Accuracy (%) ([2]; 500 ng/mL): 92.3%; Working solution Accuracy (%) ([3]; 12.5 ng/mL): 81.7%; Working solution Accuracy (%) ([3]; 500 ng/mL): 91.0%
4.68 ± 0.41	347 ± 120	354 ± 132	235 ± 81.1	5.85 ± 3.26	5.25 ± 2.87	COc1ccc(/C=C/C(=O)O)cc1O [isoferulic acid]	108.0	95.7	90.8	88.3	87.5	86.2	85.5	104.0	95.6	106.0	100.0	95.7	Autosampler for 24 h Accuracy (%) ([2]; 200 ng/mL): 102.0%; Room temperature for 24 h Accuracy (%) ([2]; 200 ng/mL): 87.2%; Working solution Accuracy (%) ([3]; 200 ng/mL): 104.0%
1.67 ± 0.16	1110 ± 138	1120 ± 228	359 ± 147	5.38 ± 1.16	5.3 ± 0.28	CC1(C)[C@@H](O[C@H]2O[C@H](C(=O)O)[C@@H](O)[C@H](O)[C@H]2O[C@@H]2O[C@H](C(=O)O)[C@@H](O)[C@H](O)[C@H]2O)CC[C@]2(C)[C@H]3C(=O)C=C4[C@@H]5C[C@@](C)(C(=O)O)CC[C@]5(C)CC[C@@]4(C)[C@]3(C)CC[C@@H]12 [glycyrrhizic acid]													Tmax ([1]; male, Sprague-Dawley, rat, plasma, po, 3.15 g/kg, read-out: Tmax): < 0.5 h; Autosampler for 24 h Accuracy (%) ([2]; concentration 12.5 ng/mL): 94.4%; Autosampler for 24 h Accuracy (%) ([2]; concentration 50 ng/mL): 100.0%; Autosampler for 24 h Accuracy (%) ([2]; concentration 100 ng/mL): 94.3%; Autosampler for 24 h Accuracy (%) ([2]; concentration 500 ng/mL): 94.5%; Room temperature for 24 h Accuracy (%) ([2]; concentration 50 ng/mL): 94.6%; Room temperature for 24 h Accuracy (%) ([2]; concentration 100 ng/mL): 107.0%; Room temperature for 24 h Accuracy (%) ([2]; concentration 500 ng/mL): 89.9%; Freeze thaw cycles Accuracy (%) ([2]; concentration 12.5 ng/mL): 84.6%; Freeze thaw cycles Accuracy (%) ([2]; concentration 500 ng/mL): 97.0%; −80°C for 1month Accuracy (%) ([2]; −80°C for 1 month, concentration 12.5 ng/mL): 85.6%; −80°C for 1month Accuracy (%) ([2]; −80°C for 1 month, concentration 50 ng/mL): 89.7%; −80°C for 1month Accuracy (%) ([2]; −80°C for 1 month, concentration 100 ng/mL): 96.2%; −80°C for 1month Accuracy (%) ([2]; −80°C for 1 month, concentration 500 ng/mL): 93.4%; Working solution Accuracy (%) ([3]; concentration 50 ng/mL): 88.5%; Working solution Accuracy (%) ([3]; concentration 100 ng/mL): 104.0%; Working solution Accuracy (%) ([3]; concentration 500 ng/mL): 87.0%
